Data from patent EP0835604A1, “Halopropargyl compounds as marine antifouling agents” (ROHM AND HAAS COMPANY, priority 1996, dated 1998).

Experiments:
Artemia = assay: Toxicity to Artemia nauplii in ASTM sea water, 96 well plate serial dilution; assay type: in vivo, Artemia salina; details: 24 Hours; highest dilution in which all of the nauplii are dead; 25 °C
Procedure: Tests were conducted to determine the toxicity of the marine antifouling agents of the invention to Artemia. Artemia are indicative of hard fouling organisms.
Substitute ocean water was prepared following ASTM Method D 1141-90. The water was sterilized by filtration through a 0.22 micron cellulose acetate membrane filter. San Francisco Bay Brand® Artemia salina cysts were purchased from a local aquarium supply store. The cysts were hatched in a 250 mL Erlenmeyer flask. The Artemia cysts (0.2 g) were weighed into a sterilized flask. One hundred mL of sterile ASTM sea water was added to the flask. The flask was placed on an orbital shaker set at approximately 150 rotations per minute and 28 °C. After 24 hours, the contents of the flask were poured into a separatory funnel. The egg shells were separated from the Artemia nauplii (larvae), as the shells floated to the top. The nauplii were returned to the flask for another 24 hours shaking. The inoculum was prepared by pouring the nauplii into a crystallizing dish 48 hours after the cysts were originally placed on the shaker. After the nauplii congregated, they were taken up in a sterile serological pipette and transferred into another crystallizing dish. […] The number of nauplii in 3 to 4 wells was counted under a microscope. […]
Plates were read under a low magnification microscope 24 and 48 hours after the nauplii were added to the plate. […]

[1] = system: Amphora coffeaeformis var. perpusilla; assay: Toxicity to Amphora: growth inhibition by chlorophyll a concentration; assay type: cell-based; details: 96 hours at 20 °C, % inhibition of the mean control; for EC 50: dose effective at preventing 50% growth; for EC 100: dose effective at preventing 100% growth
Procedure: Tests were conducted to determine the toxicity of the marine antifouling agents of the invention to Amphora. Amphora are indicative of soft fouling organisms. Amphora coffeaeformis var. perpusilla was isolated from a natural biofilm and cultured axenically in Guillard's F2 medium. A log phase culture of Amphora was diluted with the F2 medium to give a chlorophyll a concentration of 0.25 µg/mL. Chlorophyll a was measured by passing a measured volume (FV) of cell culture through a 3 µm pore, 25 mm diameter cellulose nitrate filter. The filter plus trapped algal cells was transferred to a glass tube. A measured volume (SV) of DMSO solvent was added to the glass tube. The tubes were incubated for 1.5 hours in darkness. After incubation, the absorbance of the sample was read in a spectrophotometer at 630 and 664 nm against a DMSO/filter blank. The chlorophyll a concentration can be calculated using the following equation: Chlorophylla(µg/mL) = 11.47 x Abs664 - 0.4 x Abs630 x SV/FV [formula] Ten mL of the diluted culture was pipetted into glass tubes. Ten µL of marine antifouling agent or, in the case of controls, DMF was added to each glass tube. The tubes were incubated on an illuminated orbital shaker at 20 °C for 96 hours before the chlorophyll a concentration of each tube was measured Three replicates of each treatment were used. The effects of marine antifouling agents are calculated as % inhibition of the mean control. The EC 50 is the dose effective at preventing 50% growth. The EC 100 is the dose effective at preventing 100% growth.

Row | SMILES | Artemia LC 100 (Artemia) [ppm] | EC 50 [1] [ppm] | EC 100 [1] [ppm]
1 | CCCCCCCC[N+](CC#CBr)(CCCCCCCC)CCCCCCCC.O=S(=O)([O-])c1ccccc1 [Compound 18, trioctyl-(3-bromopropargyl)ammonium benzenesulfonate] | <8 |  | 
2 | CCCCCCCCCCCCCC[N+]1(CC#CI)CCCC1.Cc1ccc(S(=O)(=O)[O-])cc1 [Compound 36, 1-tetradecyl-1-(3-iodopropargyl)-pyrrolidinium 4-methylbenzenesulfonate] | 1 | 1.9 | 5
3 | CC1(C)C(=O)N(Cc2ccccc2)C(=O)N1CC#CI [Compound 138, 1-(3-iodopropargyl)-3-benzyl-5,5-dimethylhydantoin] |  | 2.5 | 20
4 | O=c1oc2ccccc2n1CC#CI [Compound 146, 3-(3-iodopropargyl)-2-benzoxazolone] |  | 3 | 20
